From article PMC8746528, “Novel Substituted Purine Isosteres: Synthesis, Structure-Activity Relationships and Cytotoxic Activity Evaluation” (Molecules, 2021)

What was measured:
[1] = system: HCT116 colon cancer cell line; experiment: MTT cell viability assay, HCT116; assay type: cell-based; settings: Homo sapiens, HCT-116, treatment 72 h and 96 h, mean ± SD of three experiments
Experimental: (§1) The human HCT116 colon cancer cell line and PC-3 prostate cancer cell line were obtained from the American Type Cell Culture (ATCC, Bethesda, Md). Both cell lines were grown in 75 cm^2 culture flasks at 37 °C in 5% CO2 using Roswell Park Memorial Institute 1640 medium (RPMI 1640, Gibco) and Dulbecco’s modified Eagle’s medium F/12 (DMEM/F-12, Gibco), respectively, containing 10% fetal bovine serum (FBS, Gibco). To test the inhibitory activities of compounds using a cell-based assay, MTT assay was performed for cell viability, as described previously. Briefly, HCT116 cells were plated at a density of 1500 per well, while PC-3 cells were plated at a density of 750 per well in a 96-well plate. After 24 h, cells were treated with the indicated compounds in a dose-dependent manner for 72 h and 96 h (all tested compounds provided clear solutions). MTT [3-(4,5-dimethylthiazol-2-yl)-2,5-diphenyltetrazolium bromide] (Sigma M-5655) was added at a final concentration of 0.5 mg/mL directly to each well for 4 h at 37 °C. The medium was aspirated, and the blue MTT formazan precipitate was dissolved in dimethyl sulfoxide (DMSO). Absorbance was determined in a Powerwave microplate spectrophotometer (Biotek Instruments, Inc.) at 540 nm. Viable cell numbers were determined by tetrazolium conversion to its formazan dye. The IC50 was calculated by Microsoft Excel equation and confirmed by GraphPad Prism (7.0). Each experiment was performed in triplicate and mean values ± SD are reported.

[2] = system: PC-3 prostate cancer cell line; experiment: MTT cell viability assay, PC-3; assay type: cell-based; settings: Homo sapiens, treatment 72 h and 96 h, mean ± SD of three experiments
Experimental: as §1

[3] = system: normal human fibroblasts (WI-38); experiment: MTT cytotoxicity towards normal fibroblasts; assay type: cell-based; settings: WI-38; for IC50: MTT, normal human fibroblasts
Experimental: as §1
Figure 1 Dose-response curves for the administration of 14b, 26b, 35b on HCT116, PC-3 and WI-38 cells, as assessed by the MTT assay. Results are expressed as a percentage of controls. Statistical analysis was performed in triplicate determination at p < 0.05.

| IC50 [1] | IC50 [2] | melting point | Compound | cytotoxicity to normal cells in words [3] | IC50 [3] |
| --- | --- | --- | --- | --- | --- |
| 2.75 ± 0.35 µM | 6.2 ± 0.23 µM | > 250 °C | c1ccc(Nc2ncnc3c(-c4ccccc4)c[nH]c23)cc1 [26a, Ν,7-Diphenyl-5H-pyrrolo[3,2-d]pyrimidin-4-amine] | – | – |
| > 10 µM | > 10 µM | 150 to 151 °C | COc1ccc(Cn2cc(-c3ccccc3)c3ncnc(N4CCN(C)CC4)c32)cc1 [25a, 5-(4-Methoxybenzyl)-4-(4-methylpiperazin-1-yl)-7-phenyl-5H-pyrrolo[3,2-d]pyrimidine] | – | – |
| > 10 µM | > 10 µM | 57 to 58 °C | COc1ccc(Cn2cc(-c3ccccc3)c3ncnc(Nc4ccccc4)c32)cc1 [24a, 5-(4-Methoxybenzyl)-Ν,7-diphenyl-5H-pyrrolo[3,2-d]pyrimidin-4-amine] | – | – |
| > 10 µM | > 10 µM | > 250 °C | COc1cc(Nc2ncnc3c(-c4cccc(F)c4)n[nH]c23)cc(OC)c1OC [35d, 3-(3-Fluorophenyl)-N-(3,4,5-trimethoxyphenyl)-1H-pyrazolo[4,3-d]pyrimidin-7-amine] | – | – |
| 5 ± 0.1 µM | 0.215 ± 0.025 µM | 139 to 140 °C | c1ccc(Nc2nccc3c(-c4ccccc4)c[nH]c23)cc1 [14a, Ν,3-Diphenyl-1H-pyrrolo[2,3-c]pyridin-7-amine] | rather cytotoxic to normal cells | < 10 µM |
| 7.3 ± 0.62 µM | 4.7 ± 0.18 µM | – | c1ccc(Nc2ncnc3c(-c4ccccc4)n[nH]c23)cc1 [35a, N,3-Diphenyl-1H-pyrazolo[4,3-d]pyrimidin-7-amine] | – | – |
| > 10 µM | > 10 µM | – | CN1CCN(c2ncnc3c(-c4cccc(F)c4)n[nH]c23)CC1 [35f, 3-(3-Fluorophenyl)-7-(4-methylpiperazin-1-yl)-1H-pyrazolo[4,3-d]pyrimidine] | – | – |
| > 10 µM | > 10 µM | 151 to 152 °C | COc1ccc(Cn2cc(-c3cccc(F)c3)c3ncnc(N4CCN(C)CC4)c32)cc1 [25b, 7-(3-Fluorophenyl)-5-(4-methoxybenzyl)-4-(4-methylpiperazin-1-yl)-5H-pyrrolo[3,2-d]pyrimidine] | – | – |
| 0.72 ± 0.09 µM | 0.47 ± 0.12 µM | 153 to 154 °C | COc1cc(Nc2nccc3c(-c4ccccc4)c[nH]c23)cc(OC)c1OC [14c, N-(3,4,5-trimethoxyphenyl)-3-phenyl-1H-pyrrolo[2,3-c]pyridin-7-amine] | – | < 10 µM |
| > 10 µM | > 10 µM | > 250 °C | CN1CCN(c2ncnc3c(-c4ccccc4)c[nH]c23)CC1 [26e, 4-(4-Methylpiperazin-1-yl)-7-phenyl-5H-pyrrolo[3,2-d]pyrimidine] | – | – |
| > 10 µM | > 10 µM | – | CN1CCN(c2ncnc3c(-c4cccc(F)c4)c[nH]c23)CC1 [26f, 7-(3-Fluorophenyl)-4-(4-methylpiperazin-1-yl)-5H-pyrrolo[3,2-d]pyrimidine] | – | – |
| 3.9 ± 0.3 µM | 1.45 ± 0.25 µM | 149 to 150 °C | COc1cc(Nc2nccc3c(-c4cccc(F)c4)c[nH]c23)cc(OC)c1OC [14d, 3-(3-Fluorophenyl)-N-(3,4,5-trimethoxyphenyl)-1H-pyrrolo[2,3-c]pyridin-7-amine] | – | < 10 µM |
| > 10 µM | > 10 µM | 96 to 97 °C | COc1ccc(Cn2cc(-c3cccc(F)c3)c3ncnc(Nc4cc(OC)c(OC)c(OC)c4)c32)cc1 [24d, 7-(3-Fluorophenyl)-5-(4-methoxybenzyl)-N-(3,4,5-trimethoxyphenyl)-5H-pyrrolo[3,2-d]pyrimidin-4-amine] | – | – |
| > 10 µM | > 10 µM | 131 to 132 °C | COc1ccc(Cn2cc(-c3cccc(F)c3)c3ncnc(Nc4ccccc4)c32)cc1 [24b, 7-(3-Fluorophenyl)-5-(4-methoxybenzyl)-Ν-phenyl-5H-pyrrolo[3,2-d]pyrimidin-4-amine] | – | – |
| 4.5 ± 0.25 µM | 2.25 ± 0.35 µM | 187 to 188 °C | COc1ccc(Cn2cc(-c3ccccc3)c3ncnc(Nc4cc(OC)c(OC)c(OC)c4)c32)cc1 [24c, 5-(4-Methoxybenzyl)-N-(3,4,5-trimethoxyphenyl)-7-phenyl-5H-pyrrolo[3,2-d]pyrimidin-4-amine] | – | – |
| 4.7 ± 0.25 µM | 5.7 ± 0.4 µM | > 250 °C | COc1cc(Nc2ncnc3c(-c4ccccc4)n[nH]c23)cc(OC)c1OC [35c, 3-Phenyl-N-(3,4,5-trimethoxyphenyl)-1H-pyrazolo[4,3-d]pyrimidin-7-amine] | – | – |
| > 10 µM | > 10 µM | 165 to 166 °C | COc1ccc(Cn2cc(-c3cccc(F)c3)c3ccnc(Nc4ccccc4)c32)cc1 [10b, 3-(3-Fluorophenyl)-1-(4-methoxybenzyl)-Ν-phenyl-1H-pyrrolo[2,3-c]pyridin-7-amine] | – | – |
| > 10 µM | > 10 µM | 93 to 94 °C | COc1ccc(Cn2cc(-c3cccc(F)c3)c3ccnc(Nc4cc(OC)c(OC)c(OC)c4)c32)cc1 [10d, 3-(3-Fluorophenyl)-1-(4-methoxybenzyl)-Ν-(3,4,5-trimethoxyphenyl)-1H-pyrrolo[2,3-c]pyridin-7-amine] | – | – |
| 4.4 ± 0.35 µM | 9.3 ± 0.76 µM | – | COc1ccc(Cn2cc(-c3cccc(F)c3)c3ccnc(N4CCN(C)CC4)c32)cc1 [13b, 3-(3-Fluorophenyl)-1-(4-methoxybenzyl)-7-(4-methylpiperazin-1-yl)-1H-pyrrolo[2,3-c]pyridine] | – | – |
| > 10 µM | > 10 µM | – | CN1CCN(c2ncnc3c(-c4ccccc4)n[nH]c23)CC1 [35e, 7-(4-Methylpiperazin-1-yl)-3-phenyl-1H-pyrazolo[4,3-d]pyrimidine] | – | – |
| 2.35 ± 0.15 µM | 2.35 ± 0.05 µM | 209 to 210 °C | CN1CCN(c2nccc3c(-c4cccc(F)c4)c[nH]c23)CC1 [14f, 3-(3-Fluorophenyl)-7-(4-methylpiperazin-1-yl)-1H-pyrrolo[2,3-c]pyridine] | – | – |
| 9.4 ± 0.53 µM | 9.8 ± 0.25 µM | 136 to 137 °C | COc1ccc(Cn2cc(-c3ccccc3)c3ccnc(Nc4cc(OC)c(OC)c(OC)c4)c32)cc1 [10c, 1-(4-Methoxybenzyl)-Ν-(3,4,5-trimethoxyphenyl)-3-phenyl-1H-pyrrolo[2,3-c]pyridin-7-amine] | – | – |
| 5 ± 0.18 µM | 7 ± 0.4 µM | 88 to 89 °C | COc1ccc(Cn2cc(-c3ccccc3)c3ccnc(N4CCN(C)CC4)c32)cc1 [13a, 1-(4-Methoxybenzyl)-7-(4-methylpiperazin-1-yl)-3-phenyl-1H-pyrrolo[2,3-c]pyridine] | – | – |
| 7.8 ± 0.45 µM | 9.7 ± 0.5 µM | > 250 °C | COc1cc(Nc2ncnc3c(-c4ccccc4)c[nH]c23)cc(OC)c1OC [26c, N-(3,4,5-Trimethoxyphenyl)-7-phenyl-5H-pyrrolo[3,2-d]pyrimidin-4-amine] | – | – |
| 2.4 ± 0.1 µM | > 10 µM | 180 to 181 °C | COc1ccc(Cn2cc(-c3ccccc3)c3ccnc(Nc4ccccc4)c32)cc1 [10a, 1-(4-Methoxybenzyl)-Ν,3-diphenyl-1H-pyrrolo[2,3-c]pyridin-7-amine] | – | – |
| 8.7 ± 0.58 µM | 5.9 ± 0.37 µM | 139 to 140 °C | COc1cc(Nc2ncnc3c(-c4cccc(F)c4)c[nH]c23)cc(OC)c1OC [26d, 7-(3-Fluorophenyl)-N-(3,4,5-trimethoxyphenyl)-5H-pyrrolo[3,2-d]pyrimidin-4-amine] | – | – |
